In brackets after ≈: the same amount, converted by molar mass. Activity calls are given as the source filed them. The rule behind the calls is not given here.
Columns and labels:
Plasmodium berghei [1] = assay: Antimalarial activity against Plasmodium berghei infected in mouse assessed as disease cure from parasite infection at 160 mg/kg, sc administered 72 hrs after infection; format: functional, organism-based; design: dose 160 mg/kg
Plasmodium berghei [2] = assay: Antimalarial activity against Plasmodium berghei infected in mouse assessed as disease cure from parasite infection at 80 mg/kg, sc administered 72 hrs after infection; format: functional, organism-based; design: dose 80 mg/kg
Plasmodium berghei [3] = assay: Antimalarial activity against Plasmodium berghei infected in mouse assessed as increase in mean survival days of host at 80 mg/kg, sc administered 72 hrs after infection relative to control; format: functional; details: route subcutaneous
Plasmodium berghei [4] = assay: Antimalarial activity against Plasmodium berghei infected in mouse assessed as increase in mean survival days of host at 40 mg/kg, sc administered 72 hrs after infection relative to control; format: functional; details: route subcutaneous
Plasmodium berghei [5] = assay: Antimalarial activity against Plasmodium berghei infected in mouse assessed as disease cure from parasite infection at 320 mg/kg, sc administered 72 hrs after infection; format: functional, organism-based; design: dose 320 mg/kg
Plasmodium berghei [6] = assay: Antimalarial activity against Plasmodium berghei infected in mouse assessed as increase in mean survival days of host at 20 mg/kg, sc administered 72 hrs after infection relative to control; format: functional; details: route subcutaneous
Plasmodium berghei [7] = assay: Antimalarial activity against Plasmodium berghei infected in mouse assessed as increase in mean survival days of host at 10 mg/kg, sc administered 72 hrs after infection relative to control; format: functional; details: route subcutaneous
Plasmodium berghei [8] = assay: Antimalarial activity against Plasmodium berghei infected in mouse assessed as increase in mean survival days of host at 5 mg/kg, sc administered 72 hrs after infection relative to control; format: functional; details: route subcutaneous
Plasmodium berghei [9] = assay: Antimalarial activity against trophozoite-induced Plasmodium berghei infected in mouse assessed as daily dose required to suppression of 90% parasite infection administered with diet for 6 days; format: functional
Plasmodium berghei [10] = assay: Ratio of quinine hydrochloride SD90 to compound SD90 for trophozoite-induced Plasmodium berghei infected in mouse assessed as daily dose required to suppression of 90% parasite infection administered with diet for 6 days; format: functional
Pseudomonas aeruginosa = assay: Antibacterial activity against Pseudomonas aeruginosa 28 by gradient plate test; format: functional
Shigella sonnei = assay: Antibacterial activity against Shigella sonnei C-10 by gradient plate test; format: functional
Staphylococcus aureus [11] = assay: Antibacterial activity against Staphylococcus aureus UC-96 by gradient plate test; format: functional
Plasmodium berghei [12] = assay: Antimalarial activity against Plasmodium berghei infected in mouse assessed as disease cure from parasite infection at 640 mg/kg, sc administered 72 hrs after infection; format: functional, organism-based; design: dose 640 mg/kg
Escherichia coli = assay: Antibacterial activity against Escherichia coli Vogel by gradient plate test; format: functional
Enterococcus faecalis = assay: Antibacterial activity against Streptococcus faecalis MGH-2 by gradient plate test; format: functional
[13] = tested on: Mycobacterium tuberculosis; assay: Antibacterial activity against Mycobacterium tuberculosis H37Ra by gradient plate test; format: functional
Staphylococcus aureus [14] = assay: Antibacterial activity against drug-resistant Staphylococcus aureus S18713 by gradient plate test; format: functional
Plasmodium berghei [15] = assay: Antimalarial activity against Plasmodium berghei infected in mouse assessed as increase in mean survival days of host at 2.5 mg/kg, sc administered 72 hrs after infection relative to control; format: functional; details: route subcutaneous
Plasmodium berghei [16] = assay: Antimalarial activity against Plasmodium berghei infected in mouse assessed as disease cure from parasite infection at 40 mg/kg, sc administered 72 hrs after infection; format: functional, organism-based; design: dose 40 mg/kg
Plasmodium berghei [17] = assay: Antimalarial activity against Plasmodium berghei infected in mouse assessed as increase in mean survival days of host at 1.25 mg/kg, sc administered 72 hrs after infection relative to control; format: functional; details: route subcutaneous
Plasmodium berghei [18] = assay: Antimalarial activity against Plasmodium berghei infected in mouse assessed as disease cure from parasite infection at 20 mg/kg, sc administered 72 hrs after infection; format: functional, organism-based; design: dose 20 mg/kg
Plasmodium berghei [19] = assay: Antimalarial activity against Plasmodium berghei infected in mouse assessed as increase in mean survival days of host at 160 mg/kg, sc administered 72 hrs after infection relative to control; format: functional; details: route subcutaneous

SMILES | Activity (Plasmodium berghei [1]) | Activity (Plasmodium berghei [2]) | MST (Plasmodium berghei [3]) [days] | MST (Plasmodium berghei [4]) [days] | Activity (Plasmodium berghei [5]) | MST (Plasmodium berghei [6]) [days] | MST (Plasmodium berghei [7]) [days] | MST (Plasmodium berghei [8]) [days] | SD90 (Plasmodium berghei [9]) [mg/kg/day] | Ratio (Plasmodium berghei [10]) | MIC (Pseudomonas aeruginosa) [µg/mL] | MIC (Shigella sonnei) [µg/mL] | MIC (Staphylococcus aureus [11]) [µg/mL] | Activity (Plasmodium berghei [12]) | MIC (Escherichia coli) [µg/mL] | MIC (Enterococcus faecalis) [µg/mL] | MIC [13] [µg/mL] | MIC (Staphylococcus aureus [14]) [µg/mL] | MST (Plasmodium berghei [15]) [days] | Activity (Plasmodium berghei [16]) | other results
Nc1nc(N)c2cc(Sc3ccc(-c4ccccc4)cc3)ccc2n1 | Active | Active | 15.6 | 12.1 | Active | 7.9 | 6.5 | 1.1 | – | – | – | – | – | – | – | – | – | – | – | – | –
CN(Cc1ccc(Cl)c(Cl)c1)c1ccc2nc(N)nc(N)c2c1.Cl | – | – | – | – | – | – | – | – | 0.16 | 470 | – | – | – | – | – | – | – | – | – | – | –
CC(=O)Nc1ccc(Sc2ccc3nc(N)nc(N)c3c2)cc1 | Active | Active | 24.9 | 12.9 | Active | 6.3 | 3.3 | – | – | – | > 25 | > 25 | < 0.25 | Active | 2.5 (≈ 7.68 µM) | < 0.25 | > 25 | < 0.25 | – | – | –
Nc1nc(N)c2cc(Sc3c(Cl)c(Cl)c(Cl)c(Cl)c3Cl)ccc2n1 | Active | Active | – | 18.1 | Active | 10.7 | 6.6 | 2.7 | – | – | > 25 | > 25 | 10 (≈ 22.7 µM) | – | > 25 | 1.5 (≈ 3.4 µM) | – | 20 (≈ 45.4 µM) | 2 | Active | –
COc1cc(Cc2cnc(N)nc2N)cc(OC)c1OC [TRIMETHOPRIM] | – | – | – | – | – | – | – | – | 120 | 0.6 | > 25 | < 0.25 | < 0.25 | – | < 0.25 | < 0.25 | > 25 | < 0.25 | – | – | –
Cc1c(Sc2ccc(Cl)c(Cl)c2)ccc2nc(N)nc(N)c12 | Active | Active | – | – | Active | 15.4 | 7.9 | 7.3 | – | – | – | – | – | Active | – | – | – | – | 2.5 | Active | MST (Plasmodium berghei [17]): 1.3 days; Activity (Plasmodium berghei [18]): Active
Cc1c(Sc2ccc3ccccc3c2)ccc2nc(N)nc(N)c12 | Active | Active | – | – | Active | 20.9 | 12.9 | 10.9 | – | – | > 25 | < 2.5 | < 2.5 | Active | < 2.5 | < 2.5 | – | < 2.5 | 6.5 | Active | MST (Plasmodium berghei [17]): 1.9 days; Activity (Plasmodium berghei [18]): Active
Nc1nc(N)c2cc(Sc3cc(Cl)ccc3Cl)ccc2n1 | Active | – | 9.8 | 8.2 | Active | 5.9 | 2.9 | 2.3 | 4.5 | 17 | > 25 | 10 (≈ 29.7 µM) | < 0.25 | Active | 1 (≈ 2.97 µM) | < 0.25 | – | < 0.25 | – | – | MST (Plasmodium berghei [19]): 8.8 days
Nc1nc(N)c2cc(Sc3cc(Cl)cc(Cl)c3)ccc2n1 | Active | – | 12.7 | 6.9 | Active | 4.1 | 1.1 | – | – | – | > 25 | 20 (≈ 59.3 µM) | < 0.25 | Active | 2 (≈ 5.93 µM) | < 0.25 | 20 (≈ 59.3 µM) | < 0.25 | – | – | MST (Plasmodium berghei [19]): 17.9 days

Source: ChEMBL document CHEMBL3272271, “Folate antagonists. 13. 2,4-Diamino-6-](alpha,alpha,alpha-trifluoro-m-tolyl)thio]quinazoline and related 2,4-diamino-6-[(phenyl- and naphthyl)thio]quinazolines, a unique class of antimetabolites with extraordinary antimalarial and antibacterial effects” (J Med Chem, 1978)
